One test relates to IL-6. The test is described as follows: IL-6 levels in LPS-activated primary microglia cells treated with amino acid combinations. Format: cell-based, mouse. As to conditions: for IL-6 Measurements, Mean: mouse microglia supernatant, 12 h after LPS 100 ng/ml, LIV 2.5 mM, NAC, ALCAR, CR 1 mM each, 6 replicates. The method, then:
(§1) Pups were decapitated, brains removed from the skulls, cortices dissected and collected in Calcium and Magnesium free Hanks Balanced Salt Solution (CMF-HBSS) on ice. Cortices were chopped with a sterile razor blade in chop solution (CMF-HBSS) and digested in 2 ml digestion solution (0.25% trypsin in CMF-HBSS) in a 15 ml sterile plastic tube for 20 minutes at 37° C. in a water bath. After removing as much as possible of the digestion solution (approximately 1 ml), the digestion was stopped by adding 3 ml stop solution (0.01% DNaseI and 0.5% trypsin inhibitor in FCS). Cortices were triturated 10-15 times with a fire-polished Pasteur pipette and centrifuged at 300 g for 5 minutes. The pellet was resuspended in 1 ml nutrition medium (10% FCS, 1% Penicillin-Streptomycin, 2 mM L-glutamine in DMEM) per pup. Cells were seeded into poly-D-lysine pre-coated T75 flasks containing 14 ml nutrition medium (one pup per flask). Medium was changed every 3 to 4 days and cells were cultured at 37° C., 95% humidity and 5% CO2 for approximately 14 days before harvesting the microglia.
(§2) After approximately 14 days of cultivation microglia cells were harvested by shaking the T75 flasks at 200 rpm at 37° C. for 2 h. After visual inspection confirming that the microglia cells had detached, the supernatants containing the microglia were transferred to 50 ml tubes (supernatant from 1 flask into 1 tube) and centrifuged at 300 g for 10 minutes. The pelleted microglia cells were resuspended in 2 ml of nutrition medium. Microglia cells were seeded into uncoated plates 1×10^5 cells/well (96 well plate) and incubated for 2 h at 37° C. Then the plates were rocked at 100 rpm for 5 minutes to detach the oligodendrocytes. The medium containing the oligodendrocytes was exchanged with fresh medium and microglia cells were incubated for 2 days at 37° C. before LPS treatment. 24 h before LPS stimulation single amino acids and combinations were administered. Next, 1 h before LPS stimulation, medium was changed to treatment medium (DMEM, 5% FBS, 2 mM L-glutamine) containing amino acids or combinations. Cells were maintained in treatment medium for the remaining culture period. One hour after changing cells to treatment medium, cells were stimulated with LPS (100 ng/ml) for 12 h in total. Cells treated with vehicle, LPS alone served as controls.
(§3) After 12 h of LPS stimulation, cell supernatants were collected and cytokines IL-6 and TNFα were measured. […]
(§4) Levels of TNFα an IL-6 were measured in supernatants of primary microglia cells collected 12 h after LPS stimulation. Cytokines were measured by an immunosorbent assay (U-PLEX Custom Mouse Cytokine, Mesoscale Discovery) according to the instructions of the manufacturer and evaluated in comparison to calibration curves provided in the kit. […]

In another test the test system is TNFα. In words: TNFα levels in LPS-activated primary microglia cells treated with amino acid combinations. The format is cell-based, mouse. To be noted: for TNFα Measurements, Mean: mouse microglia supernatant, 12 h after LPS 100 ng/ml, LIV 2.5 mM, NAC, ALCAR, CR 1 mM each, 6 replicates. Here is the method:
as §1, §2, §3, §4

[1] abbreviates: mouse microglia activated with LPS.

In the case of `CN(CC(=O)O)C(=N)N` [CR, creatine], the “IL-6 Measurements, Mean” value with IL-6 amounted to 56492 pg per ml. Moreover, the “TNFα Measurements, Mean” value in the test on TNFα came to 17884 pg per ml.
Regarding `CC(=O)N[C@@H](CS)C(=O)O` [NAC, N-acetylcysteine], in the test with IL-6 (setting [1]), the “IL-6 protein level compared to vehicle treated with LPS stimulus” value is “reduced”. Also, in the test on IL-6, the “IL-6 Measurements, Mean” value is reported as 46749 pg per ml. For the same compound, the “TNFα protein level compared to vehicle treated with LPS stimulus” value in the test on TNFα (setting [1]) is “reduced”. In addition, the “TNFα Measurements, Mean” value with TNFα was found to be 14814 pg per ml.
Regarding `CC(=O)O[C@H](CC(=O)[O-])C[N+](C)(C)C` [ALCAR, acetyl-1-carnitine], the “IL-6 Measurements, Mean” value with IL-6 is on record as 59600 pg per ml. Moreover, the “TNFα Measurements, Mean” value in the test with TNFα is 21897 pg per ml.

The record behind these values is patent US20190046486A1, “COMPOSITIONS AND METHODS FOR THE TREATMENT OF NEURONAL INJURY” (AXCELLA HEALTH INC., priority 2017, published 2019).
